The source of these data is article PMC5469750, “Antibacterial and detoxifying activity of NZ17074 analogues with multi-layers of selective antimicrobial actions against Escherichia coli and Salmonella enteritidis” (Scientific Reports, 2017).

Where two headings read alike, the source gives them in different places. Bridges are numbered along the chain shown (N, C = ends). Where no end group is shown, it is not given here.

For data set [1], the system named is E. coli CICC21530 (serotype O157:H7). The class given is cell-based, Escherichia coli. The settings on record: microbroth dilution, MH medium, 1 × 10^5 CFU/ml, 37 °C, 18–24 h; representative of three independent experiments. On the procedure:
(§1) The antimicrobial activity of peptides was determined by the microbroth dilution method. The bacterial strains were incubated in Mueller-Hinton (MH) medium at 37 °C overnight until the mid-log phase (OD600 nm reading of 0.5). Bacteria were diluted to 1 × 10^5 CFU/ml and added into 96-well plates, followed by the addition of serial dilutions of peptides (from 0.0625 to 128 μg/ml). The plates were incubated at 37 °C for 18–24 h. The MIC value was determined as the lowest peptide concentration at which no bacterial growth was observed. All tests were conducted in triplicate.

Data set [2] has as its system E. coli CVCC1515. The class given is cell-based, Escherichia coli. On the procedure: as §1
The next data set relates to S. enteritidis CVCC3377. It is filed as cell-based, Salmonella enteritidis. On the procedure: as §1
The subject of data set [3] is Bacillus subtilis ATCC6633. The class given is cell-based. On the procedure:
as §1

In data set [4] the test system is Enterococcus faecium CMCC1.2136. It is filed as cell-based. As for the experimental part: as §1
In the next data set the test system is Escherichia coli CVCC195. It is filed as cell-based. As for the experimental part:
as §1

In data set [5] the test system is Listeria ivanovii ATCC19119. It is filed as cell-based. On the procedure: as §1
In data set [6] the test system is Pseudomonas aeruginosa CICC10419. It is filed as cell-based. On the procedure: as §1
The next data set deals with S. choleraesuis CVCC503. The class given is cell-based. On the procedure: as §1
The test system of another data set is S. pullorum CVCC1789. It is filed as cell-based. On the procedure: as §1
Another data set concerns S. pullorum CVCC1802. The class given is cell-based. As for the experimental part: as §1
For the next data set, the system named is S. suis CVCC606. The class given is cell-based. On the procedure: as §1
Data set [7] has as its system Salmonella typhimurium ATCC14028. The class given is cell-based. On the procedure: as §1
In data set [8] the test system is Staphylococcus aureus ATCC43300. It is filed as cell-based. On the procedure: as §1
Another data set concerns P. aeruginosa CICC21630. The class given is cell-based, Pseudomonas aeruginosa. On the procedure:
as §1

A further data set relates to S. aureus ATCC25923. It is filed as cell-based, Staphylococcus aureus. As for the experimental part:
as §1

The test system of data set [9] is Candida albicans CGMCC2.2411. It is filed as cell-based.
The nature of data set [10]: Calcein leakage from model eukaryotic membranes. The settings on record: POPC/cholesterol = 1:1 LUVs (500 μM lipid), 64 to 256 μg/ml, 5 min; 100% = 1% Triton X-100; n = 3. The class given is biochemical. As for the experimental part: Different lipids (Avanti Polar Linpids, Inc.) were used to prepare model membranes composed of POPC/ POPG (4:1 molar ratio) and POPC/cholesterol (1:1) by the extrusion method as previously described. POPC/POPG and POPC/cholesterol LUVs were used to mimic gram-negative bacterial and eukaryotic membranes, respectively. […] After incubation for 5 min, the fluorescence (F) (λexcitation = 492 nm, λemission = 518 nm) was measured on a microplate reader.

The nature of data set [11]: LPS binding, BODIPY-TR-cadaverine (BC) displacement. The settings on record: 100 μM; 40 μg/ml LPS and 10 μM BC in 50 mM Tris buffer pH 7.4, 1 h, room temperature. As for the experimental part: Equal volumes of 40 μg/ml LPS and 10 μM BC in 50 mM Tris buffer (pH 7.4) were mixed, added into 96-well plates and incubated in the dark for 4 h at room temperature. […] Fluorescence was then measured using a microplate reader (excitation/emission, 580/620 nm). The occupancy rate was calculated by the following equation: BC displacement rate (%) = (1 − (F0 − F)/(F0 − Fmax)) × 100, wherein F0 is the fluorescence intensity of the solution of BC alone; Fmax is the fluorescence intensity in the presence of LPS at the saturation concentration, and F is the intensity of LPS:BC mixtures at varying displacer concentrations.

A further data set concerns murine erythrocytes. Also on record: method as in PMID 24816779. The settings on record: 128 μg/ml; parent peptide; cited from earlier work.
Data set [12] deals with E. coli CVCC1515. Description: E. coli-induced peritonitis model, survival. It is filed as in vivo, ICR mice. The settings on record: 7 days, six mice per group. As for the experimental part:
(§2) Mice injected with only bacteria or saline served as negative (untreated) or blank (unchallenged) controls, respectively. Survival of mice was recorded every 12 h and followed for 7 days.

The subject of another data set is S. enteritidis CICC22956. Nature of the data set: S. enteritidis-induced peritonitis model, survival. It is filed as in vivo, ICR mice. The settings on record: 7 days, six mice per group. On the procedure:
as §2

The subject of the next data set is E. coli 0111:B4 LPS. Nature of the data set: LPS-induced endotoxemia model, survival. The class given is in vivo, C57BL/6 mice. The following applies: 7 days, six mice per group. As for the experimental part: Eight-week-old SPF male C57BL/6 mice (20 g ± 5 g, six mice per group) were injected intraperitoneally with E. coli 0111:B4 LPS (30 mg/kg body weight, Sigma). […] Mice injected with PBS were used as the negative control. The mouse survival rate was recorded for 7 days.

A further data set relates to IL-1β. Description: LPS-induced cytokine release, serum ELISA. It is filed as in vivo, C57BL/6 mice. The following applies: 15 mg/kg intraperitoneal 0.5 h after 10 mg/kg LPS; LPS control 292.9; mean, n = 3 per group. As for the experimental part:
(§3) Blood was collected in a heparin sodium tube at 2 h or 8 h after LPS injection and incubated for 30 min at 37 °C and then overnight at 4 °C. After centrifugation at 3,000 rpm for 10 min at 4 °C, serum was collected from supernatant. The cytokine levels of TNF-α, IL-6 and IL-1β were detected by the Jiaxuan Biotech. Co. Ltd. (Beijing, China) using an enzyme linked immunosorbent assay (ELISA).
For orientation: In an ELISA, binding on a coated surface is turned into a signal by an enzyme label.

For the next data set, the system named is IL-6. Description: LPS-induced cytokine release, serum ELISA. The following applies: 15 mg/kg intraperitoneal 0.5 h after 10 mg/kg LPS; LPS control 1026.8; mean, n = 3 per group. The class given is in vivo, C57BL/6 mice. As for the experimental part: as §3
The subject of the next data set is TNF-α. Description: LPS-induced cytokine release, serum ELISA. The class given is in vivo, C57BL/6 mice. The settings on record: 15 mg/kg intraperitoneal 0.5 h after 10 mg/kg LPS; LPS control 394.9; mean, n = 3 per group. As for the experimental part: as §3
[13] abbreviates: microbroth dilution, MH medium, 1 × 10^5 CFU/ml, 37 °C, 18–24 h, representative of three independent experiments.

Broadly, the MIC is the lowest concentration that inhibits growth of the organism. Read a low MIC as inhibition by little substance. Consider “GFCWNVCVYRNGVRVCHRRCN (bicyclic or more) (disulfide 7-16, 3-20) [N1, parent marine peptide, variant of arenicin-3 (Tyr5 → Asn, Tyr17 → His) from the lugworm Arenicola marina, reference compound]”, for which the MIC in data set [1] was 0.5 µg/mL; in the data set with E. coli CVCC1515 [2] (setting [13]), 0.25 µg/mL; with S. enteritidis CVCC3377 (setting [13]), 0.25 µg/mL; in [3] (setting [13]), 0.25 µg/mL; in [4] (setting [13]) it was more than 16 µg/mL; against Escherichia coli CVCC195 (setting [13]), 0.5 to 1 µg/mL. Also, the minimal inhibitory concentration (MIC) stood at 128 µg/mL in data set [5] (setting [13]); 2 µg/mL in [6] (setting [13]); 0.5 µg/mL against S. choleraesuis CVCC503 (setting [13]); 0.25 µg/mL with S. pullorum CVCC1789 (setting [13]); 0.25 µg/mL against S. pullorum CVCC1802 (setting [13]); 16 µg/mL in the data set on S. suis CVCC606 (setting [13]). Besides, the MIC in data set [7] (setting [13]) is 0.5 µg/mL; in [8] (setting [13]) it was 16 µg/mL; with P. aeruginosa CICC21630 (setting [13]) it was 4 µg/mL; against S. aureus ATCC25923 (setting [13]), 0.5 to 1 µg/mL; in data set [9] (setting [13]), 16 µg/mL. Besides, in data set [10], the calcein dye leakage is on record as 2.5–25.3%. In data set [11], this substance came in with a BC displacement percentage of 79.8%. Also, in the data set with murine erythrocytes, the hemolysis is recorded as 3%.
As to GFWNVVYRNGVRVHRRN [N5], the MIC in data set [1] came to 64 µg/mL; in the data set with E. coli CVCC1515 [2] (CVCC1515) it was 128 µg/mL; in the data set with S. enteritidis CVCC3377 (CVCC3377) it was 4 µg/mL; in [3] (ATCC6633) it was 64 µg/mL; in data set [4] (CMCC1.2136), 64 µg/mL; against Escherichia coli CVCC195 (CVCC195), 64 µg/mL. The minimum inhibitory concentration (MIC) in data set [5] (ATCC19119) is 128 µg/mL; in [6] (CICC10419), more than 128 µg/mL; in the data set with S. choleraesuis CVCC503 (CVCC503), more than 128 µg/mL; with S. pullorum CVCC1789 (CVCC1789), more than 128 µg/mL; in the data set with S. pullorum CVCC1802 (CVCC1802), more than 128 µg/mL; in the data set on S. suis CVCC606 it was more than 128 µg/mL. For the same substance, the MIC in [7] (ATCC14028) is 128 µg/mL; in data set [8] (ATCC43300), more than 128 µg/mL; against P. aeruginosa CICC21630 (CICC21630), more than 128 µg/mL; against S. aureus ATCC25923 (ATCC25923), 2 µg/mL; in data set [9] (CGMCC2.2411) it was more than 128 µg/mL.
For the substance GFAWNVAVYRNGVRVAHRRAN [N8], the MIC in [1] stood at 16 µg/mL; against E. coli CVCC1515 [2] (CVCC1515), 16 µg/mL; against S. enteritidis CVCC3377 (CVCC3377) it was 1 µg/mL; in [3] (ATCC6633), 4 µg/mL; in data set [4] (CMCC1.2136), 16 µg/mL; in the data set on Escherichia coli CVCC195 (CVCC195) it was 32 µg/mL. In addition, the minimum inhibitory concentration (MIC) in data set [6] (CICC10419) was more than 128 µg/mL; against S. choleraesuis CVCC503 (CVCC503) it was more than 64 µg/mL; in the data set on S. pullorum CVCC1789 (CVCC1789) it was more than 128 µg/mL; in the data set with S. pullorum CVCC1802 (CVCC1802), 32 µg/mL; against S. suis CVCC606 it was more than 128 µg/mL; in data set [7] (ATCC14028), more than 64 µg/mL. Further, the figures for the minimum inhibitory concentration (MIC) (in [8] (ATCC43300); in the data set with P. aeruginosa CICC21630 (CICC21630); in the data set on S. aureus ATCC25923 (ATCC25923)) were more than 64 µg/mL, more than 128 µg/mL and 2 µg/mL, respectively.
For the substance polymyxin B [PMB], the calcein dye leakage in data set [10] was 12.3–51.0%. Also, the BC displacement percentage in data set [11] is reported as 89.3%. The survival rate with E. coli CVCC1515 [12] (0.31 mg/kg intraperitoneal at 0.5 and 8 h after inoculation) is 66.7%; in the data set on E. coli CVCC1515 [12] (0.625 mg/kg intraperitoneal at 0.5 and 8 h after inoculation), 100%; with S. enteritidis CICC22956 (0.31 mg/kg intraperitoneal at 0.5 h and 8 h after challenge), 83.3%; in the data set with S. enteritidis CICC22956 (0.625 mg/kg intraperitoneal at 0.5 h and 8 h after challenge) it was 100%; with E. coli 0111:B4 LPS (10 mg/kg intraperitoneal at 0.5 h and 8 h after LPS (30 mg/kg)) it was 16.7%; with E. coli 0111:B4 LPS (15 mg/kg intraperitoneal at 0.5 h and 8 h after LPS (30 mg/kg)) it was 100%. In addition, the “serum level of IL-1β” value in the data set on IL-1β amounted to 242.8 pg/mL. For the same substance, the “serum level of IL-6” value in the data set on IL-6 came out at 514.9 pg/mL. In the data set with TNF-α, the “serum level of TNF-α” value is 74.0 pg/mL.
